In PMC10289903 (Investigational New Drugs, 2023):
Where two headings read alike, the source gives them in different places.

Legend:
clinical [1] = conditions: in vivo
Description: Pre-dose samples were also collected on day 5 of treatment cycle 5.
The slope estimate (β) and corresponding 90% confidence interval (CI) were calculated, where a β estimate of 1 with 90% CI entirely within the bounds of 0.8–1.25 indicated perfect dose proportionality.

clinical [2] = conditions: human, in vivo
Description: (§1) Analyses were performed for the bid dosing schedules and RP2D only.
(§2) Water was restricted from 1 h pre-dose until 1 h post-dose, except for the 240 mL of water administered with treatment.
(§3) Natural log-transformed AUC and Cmax were compared between fed/fasted conditions using a mixed effects analysis of variance model, which was fitted separately for each assessed dose. Estimates of the mean difference between treatments and corresponding 90% CI were calculated using a linear mixed effects model with a fixed effect for treatment (fed versus fasted) and a random effect for patients. Back transformed geometric means and 95% CIs were estimated for each condition.

[3] = system: platinum-resistant or platinum-refractory recurrent ovarian cancer; conditions: adavosertib 175 mg qd days 1, 2, 8, 9, 15, 16 of a 28-day cycle with gemcitabine; 95% CI 3.6–6.4; cited from earlier work
[4] = system: patients with locally advanced or metastatic solid tumors
Text: This was a Phase Ib, multicenter, open-label, dose-finding clinical trial (NCT02610075). […] Three types of treatment schedules were investigated: cohorts bid 1, bid 2, qd 1.1, qd 2.1 and qd 3.1 received bid or qd treatment on a 5/9 schedule (5 days on treatment, followed by 9 days off) on a 14-day cycle. Cohorts qd 1.2, qd 2.2, and qd 3.2 received treatment on a 5/2 schedule (5 days on followed by 2 days off for 2 of 3 weeks) in a 21-day cycle. Cohorts qd 2.3 and qd 3.3 received treatment on a weekly 5/2 schedule in a 21-day cycle (Table 1). The highest dose level(s) at which less than one-third of evaluable patients (none of 3 patients or 1 of 6 patients) experienced a dose-limiting toxicity (DLT) was declared the MTD.
DLTs were evaluated during the first 28 days (5/9 schedule) or the first 21 days (5/2 schedule) of treatment.

[5] = human, in vivo
Description: as §1, §2, §3

[6] = system: recurrent ovarian cancer with progressive disease while receiving PARPi; conditions: cited from earlier work
[7] = system: recurrent uterine serous carcinoma; conditions: 300 mg qd days 1–5 and 8–12 of a 21-day cycle, monotherapy, cited from earlier work
[8] = system: platinum-resistant ovarian cancer; conditions: adavosertib with carboplatin; cited from earlier work

Q: With `C=CCn1c(=O)c2cnc(Nc3ccc(N4CCN(C)CC4)cc3)nc2n1-c1cccc(C(C)(C)O)n1` [adavosertib, Adavosertib] as the compound, how does the “Dose proportionality power model slope β, AUC0–10” value (clinical [1]; human) read?
A: Its value is 1.31.

Q: What about the “Dose proportionality power model slope β, Cmax” value (clinical [1]; human) of the same compound?
A: The value was 1.31.

Q: And the half-life (clinical [1]; human, po)?
A: Its half-life is 5 to 12 h.

Q: And the “Dose proportionality of systemic exposure” value (clinical [1])?
A: Its value is “more than dose proportional”.

Q: What about the Cmax (clinical [2]; 125 mg) of the same compound?
A: Its Cmax is 276 nM.

Q: What about the Cmax (clinical [2]; 150 mg, Cmax, geometric LS mean (95% CI)) of the same compound?
A: The Cmax was 464 nM.

Q: What about the PFS [3] of the same compound?
A: Its PFS is 4.6 months.

Q: What about the “Maximum tolerated dose (MTD)” value ([4]; bid 5/9 schedule (cohort bid 1)) of the same compound?
A: The value was 125 mg.

Q: What about the “DLT nausea, occurrences” value ([4]; human, in vivo) of the same compound?
A: Its value is 3 n.

Q: What about the “DLT thrombocytopenia, occurrences” value ([4]; human, in vivo) of the same compound?
A: The value was 3 n.

Q: And the “Number of DLTs reported” value ([4]; human, in vivo)?
A: The value was 12.

Q: And the “Recommended Phase II dose (RP2D)” value ([4]; human, in vivo, 21 days)?
A: The value was 300 mg.

Q: What about the “All other DLTs (dehydration, neutropenia, weight decrease, pneumonia, diarrhea, vomiting), occurrences each” value ([4]; in vivo) of the same compound?
A: Its value is “once”.

Q: What about the “Maximum tolerated dose (MTD)” value ([4]; qd 5/2 for 2 of 3 weeks (cohort qd 3.2)) of the same compound?
A: Its value is 300 mg.

Q: What about the “Maximum tolerated dose (MTD)” value ([4]; qd 5/9 schedule (cohort qd 3.1)) of the same compound?
A: Its value is 300 mg.

Q: What about the “AUC0–10, geometric LS mean (95% CI)” value ([5]; 125 mg) of the same compound?
A: Its value is 1658.8 (1017.1, 2705.3) h*nmol/L.

Q: And the “AUC0–10, geometric LS mean (95% CI)” value ([5]; 150 mg)?
A: Its value is 3228.0 (1698.9, 6133.3) h*nmol/L.

Q: What about the “AUC0–10, geometric LS mean (95% CI)” value ([5]; 300 mg) of the same compound?
A: The value was 5340.4 (65.0, 439027.6) h*nmol/L.

Q: What about the Cmax ([5]; 300 mg) of the same compound?
A: Its Cmax is 819 nM.

Q: And the ORR ([6]; adavosertib alone, 90% CI 12–38)?
A: The ORR was 23%.

Q: What about the ORR ([6]; combination therapy with PARP inhibitor, 90% CI 16–44) of the same compound?
A: The ORR was 29%.

Q: And the ORR ([7]; 95% CI 15.1–47.5)?
A: The ORR was 29.4%.

Q: And the “Median PFS” value [7]?
A: Its value is 6.1 months.

Q: And the Response rate [8]?
A: The Response rate was 66.7%.
